Where two headings read alike, the source gives them in different places.
Key:
melanoma cell line A375 = test: Cytotoxicity in cancer cell lines (CellTiter-Glo), A375; details: Homo sapiens, A375 cells, mean of three tests
Description: (§2) The cytotoxicity of test compounds was determined for several cell lines including melanoma cell line RPMI-7951, melanoma cell line Sk-Mel-28, melanoma cell line A375, melanoma cell line U87, glioblastoma cell line U87, immortalized human T lymphocyte Jurkat cells, and human pancreatic carcinoma cell line PL-45.
(§3) All cells were obtained from ATCC. RPMI, DMEM, EMEM and pen/strep were obtained from Invitrogen. Normocin® was obtained from InvivoGen. FBS was obtained from Gibco. Cell viability reagent Cell-titer glow was obtained from Promega.
(§4) The growth media for A375 and PL45 cells was DMEM supplemented with antibiotic/anti-mycotic pen/strep and Normocin® (InvivoGen) and 10% FBS.
(§5) Ten (10) mM solutions of each of the test compounds were prepared in dimethyl sulfoxide (DMSO) and serially diluted in DMSO to provide solutions having concentrations of the test compound of 3 mM, 1 mM, 0.3 mM, 0.1 mM, 0.03 mM, or 0.01 mM. Forty (40) μL of each of the solutions were further diluted to 400 μL in the cell specific complete media to provide 10× stock solutions having a 1 mM, 300 μM, 100 μM, 30 μM, 10 μM, 3 μM, 1 μM, or 0.3 μM of the test compound. Ten (10) μL of DMSO was diluted to 400 μL in the complete media and used as the 0 μM control.
(§6) For the cytotoxicity studies, all cells were grown in their respective complete media. Confluent cells were harvested and plated into two 96-well tissue culture treated plates at 5,000-8,000 cells/wells in 180 μL media. Twenty (20) μL of each of the 10× stock solutions were added to the wells and mixed.
(§7) After incubating for 24 h, media was aspirated out and replaced with 180 μL/well of the fresh media and 20 μL/well of the 10× stock solutions in duplicate wells in duplicate plates (Plates 1 and 2; and 3 and 4) and in quadruplicate wells (Plate 5) were added, mixed and cultured for 48 hours. The final concentrations of each test compound were 100 μM, 30 μM, 10 μM, 3 μM, 1 μM, 0.3 μM, 0.1 μM and 0 μM.
(§8) After 48 hours and/or 72 hours following addition of the test compounds, one plate each was removed from the incubator, the media aspirated out, 100 μL of CellTiter-Glo® reagent added to each well, and the resulting luminescent signals measured using a VICTOR-2® plate reader.
(§9) The data from the plate reader were exported to GraphPad (Prism) and data processed using non-linear regression and EC50 value determined.

[1] = system: human pancreatic carcinoma cell line PL-45; test: Cytotoxicity in cancer cell lines (CellTiter-Glo), PL-45; details: PL45, 48 h, read-out: Cytotoxicity EC50 at 48 hours, PL-45
Description: as §2, §3, §4, §5, §6, §7, §8, §9

[2] = system: melanoma cell line RPMI-7951; test: Cytotoxicity in cancer cell lines (CellTiter-Glo), RPMI-7951; format: cell-based; details: Homo sapiens
Source text: (§1) All cells were obtained from ATCC. […] Normocin® was obtained from InvivoGen. FBS was obtained from Gibco. […] All test compounds were synthesized as described herein.

[3] = system: glioblastoma cell line U87; test: Cytotoxicity in cancer cell lines (CellTiter-Glo), U87; format: cell-based
Source text: as §1

[4] = system: immortalized human T lymphocyte Jurkat cells; test: Cytotoxicity in cancer cell lines (CellTiter-Glo), Jurkat; format: cell-based
Source text: as §1

[5] = system: melanoma cell line Sk-Mel-28; test: Cytotoxicity in cancer cell lines (CellTiter-Glo), Sk-Mel-28; format: cell-based
Source text: as §1

[6] = A-375, 48 h, read-out: Cytotoxicity EC50 at 48 hours, A375, 48 h
[7] = A-375, 72 h, read-out: Cytotoxicity EC50 at 72 hours, A375, 72 h
[8] = RPMI-7951, 48 h, read-out: Cytotoxicity EC50 at 48 hours, RPMI
[9] = RPMI-7951, 72 h, read-out: Cytotoxicity EC50 at 72 hours, RPMI
[10] = Homo sapiens, U-87 MG, 48 h; U87 cells; mean of three tests; read-out: Cytotoxicity EC50 at 48 hours, U87
[11] = Homo sapiens, U-87 MG, 72 h; U87 cells; mean of three tests; read-out: Cytotoxicity EC50 at 72 hours, U87
[12] = 48 h, Jurkat cells, mean of three tests, read-out: Cytotoxicity EC50 at 48 hours, Jurkat
[13] = 72 h, Jurkat cells, mean of three tests, read-out: Cytotoxicity EC50 at 72 hours, Jurkat
[14] = Homo sapiens, SK-MEL-28, 48 h, 48 h, Sk-Mel-28 cells, mean of three tests, read-out: Cytotoxicity EC50 at 48 hours, Sk mel
[15] = Homo sapiens, SK-MEL-28, 72 h, 72 h, Sk-Mel-28 cells, mean of three tests, read-out: Cytotoxicity EC50 at 72 hours, Sk mel
[16] = Homo sapiens, SK-MEL-28, 48 h, read-out: Cytotoxicity EC50 at 48 hours, Sk mel
[17] = Homo sapiens, SK-MEL-28, 72 h, read-out: Cytotoxicity EC50 at 72 hours, Sk mel
[18] = Homo sapiens, U-87 MG, 48 h, read-out: Cytotoxicity EC50 at 48 hours, U87
[19] = Homo sapiens, U-87 MG, 72 h, read-out: Cytotoxicity EC50 at 72 hours, U87
[20] = Jurkat, 48 h, read-out: Cytotoxicity EC50 at 48 hours, Jurkat
[21] = Jurkat, 72 h, read-out: Cytotoxicity EC50 at 72 hours, Jurkat

| Structure (SMILES) | EC50 (melanoma cell line A375; [6]) [µM] | EC50 (melanoma cell line A375; [7]) [µM] | EC50 [2, 8] [µM] | EC50 [2, 9] [µM] | EC50 [3, 10] [µM] | EC50 [4, 12] [µM] | EC50 [5, 14] [µM] | other results |
| --- | --- | --- | --- | --- | --- | --- | --- | --- |
| O=S1(=O)C=CC(OS(=O)(=O)c2ccc(OC3CCCCC3)cc2)C1 (stereo not drawn) [(36), 1,1-dioxido-2,3-dihydrothiophen-3-yl 4-(cyclohexyloxy)benzenesulfonate] | 4.3 | – | – | – | – | – | – | EC50 [1]: 2.1 µM |
| O=S1(=O)C=CC(OCc2ccc(-c3ccccc3)cc2)C1 (stereo not drawn) [(5), 3-([1,1′-biphenyl]-4-ylmethoxy)-2,3-dihydrothiophene 1,1-dioxide] | 80 | 75 | 72 | 86 | > 100 | 6 | > 100 | EC50 [3, 11]: > 100 µM; EC50 [4, 13]: 2 µM; EC50 [5, 15]: > 100 µM |
| O=S1(=O)C=CC(OCc2ccc(Oc3ccccc3)cc2)C1 (stereo not drawn) [(6), 3-((4-phenoxybenzyl)oxy)-2,3-dihydrothiophene 1,1-dioxide] | 24 | 19 | 40 | 24 | > 100 | > 100 | 69 | EC50 [3, 11]: 46 µM; EC50 [4, 13]: > 100 µM; EC50 [5, 15]: 48 µM |
| O=C(COC1C=CS(=O)(=O)C1)c1ccc2ccccc2c1 (stereo not drawn) [(8), 2-((1,1-dioxido-2,3-dihydrothiophen-3-yl)oxy)-1-(naphthalen-2-yl)ethan-1-one] | 11 | 46 | 20 | 16 | – | 0.5 | – | EC50 ([3]; Homo sapiens, U-87 MG; 48 h; U87 cells; mean of three tests; read-out: Cytotoxicity EC50 at 48 hours, U87): > 100 µM; EC50 ([3]; Homo sapiens, U-87 MG; 72 h; U87 cells; mean of three tests; read-out: Cytotoxicity EC50 at 72 hours, U87): 37 µM; EC50 [4, 13]: 0.5 µM; EC50 [5, 16]: > 100 µM; EC50 [5, 17]: 77 µM |
| CN(C1C=CS(=O)(=O)C1)S(=O)(=O)c1ccc2ccccc2c1 (stereo not drawn) [(2), N-(1,1-dioxido-2,3-dihydrothiophen-3-yl)-N-methylnaphthalene-2-sulfonamide] | > 100 | – | 85 | – | > 100 | 53 | > 100 | – |
| CN(C1=CCS(=O)(=O)C1)S(=O)(=O)c1ccc2ccccc2c1 [(20), N-(1,1-dioxido-2,5-dihydrothiophen-3-yl)-N-methylnaphthalene-2-sulfonamide] | > 100 | – | > 100 | – | > 100 | > 100 | > 100 | – |
| O=C(Nc1ccc(-c2ccccc2)cc1)NC1C=CS(=O)(=O)C1 (stereo not drawn) [(13), 1-([1,1′-biphenyl]-4-yl)-3-(1,1-dioxido-2,3-dihydrothiophen-3-yl)urea] | > 100 | – | > 100 | – | 1 | 86 | > 100 | – |
| O=S1(=O)C=CC(NS(=O)(=O)c2ccc3ccccc3c2)C1 (stereo not drawn) [(3), N-(1,1-dioxido-2,3-dihydrothiophen-3-yl)naphthalene-2-sulfonamide] | 14 | – | 19 | – | 100 | 6 | > 100 | – |
| CN(C1CCS(=O)(=O)C1)S(=O)(=O)c1ccc2ccccc2c1 (stereo not drawn) [(16)] | > 100 | 100 | > 100 | > 100 | > 100 | 9 | > 100 | EC50 [3, 11]: > 100 µM; EC50 [4, 13]: 8 µM; EC50 [5, 15]: > 100 µM |
| CN(C1=CS(=O)(=O)CC1)S(=O)(=O)c1ccc2ccccc2c1 [(19), N-(1,1-dioxido-4,5-dihydrothiophen-3-yl)-N-methylnaphthalene-2-sulfonamide] | > 100 | – | > 100 | – | > 100 | > 100 | 82 | EC50 ([5]; 48 h, Sk-Mel-28 cells, mean of three tests, read-out: Cytotoxicity EC50 at 48 hours, Sk mel): > 100 µM |
| O=S1(=O)C=CC(OCc2ccc3ccccc3c2)C1 (stereo not drawn) [(4), 3-(naphthalen-2-ylmethoxy)-2,3-dihydrothiophene 1,1-dioxide] | 19 | 5 | 44 | 26 | > 100 | 7 | 78 | EC50 [3, 11]: 53 µM; EC50 [4, 13]: 4 µM; EC50 [5, 15]: 42 µM |
| O=C(Nc1ccc2ccccc2c1)OC1C=CS(=O)(=O)C1 (stereo not drawn) [(10), 1,1-dioxido-2,3-dihydrothiophen-3-yl naphthalen-2-ylcarbamate] | 31 | 46 | 39 | 28 | – | – | – | EC50 [3, 18]: > 100 µM; EC50 [3, 19]: 31 µM; EC50 [4, 20]: > 100 µM; EC50 [4, 21]: 8 µM; EC50 [5, 16]: 38 µM; EC50 [5, 17]: 25 µM |
| O=C(NC1C=CS(=O)(=O)C1)c1ccc2ccccc2c1 (stereo not drawn) [(14), N-(1,1-dioxido-2,3-dihydrothiophen-3-yl)-2-naphthamide] | 86 | 70 | 12 | 9.4 | > 100 | 10 | > 100 | EC50 [5, 15]: 100 µM |
| O=C(Nc1ccc2ccccc2c1)NC1C=CS(=O)(=O)C1 (stereo not drawn) [(12), 1-(1,1-dioxido-2,3-dihydrothiophen-3-yl)-3-(naphthalen-2-yl)urea] | > 100 | – | 100 | – | – | – | – | EC50 [3, 18]: > 100 µM; EC50 [4, 20]: > 100 µM; EC50 [5, 16]: > 100 µM |
| CCOS(=O)(=O)c1ccc2ccccc2c1 [(31), ethyl naphthalene-2-sulfonate] | > 100 | – | – | – | – | – | – | – |
| O=C(Nc1ccc(-c2ccccc2)cc1)OC1C=CS(=O)(=O)C1 (stereo not drawn) [(11), 1,1-dioxido-2,3-dihydrothiophen-3-yl [1,1′-biphenyl]-4-ylcarbamate] | – | 97 | 25 | 12 | – | – | – | EC50 [3, 18]: 3 µM; EC50 [4, 20]: 10 µM; EC50 [5, 16]: 66 µM; EC50 [5, 17]: 62 µM |
| O=C(COC1C=CS(=O)(=O)C1)c1ccc(-c2ccccc2)cc1 (stereo not drawn) [(9), 1-([1,1′-biphenyl]-4-yl)-2-((1,1-dioxido-2,3-dihydrothiophen-3-yl)oxy)ethan-1-one] | 19 | 47 | 11 | 10 | – | – | – | EC50 [3, 18]: 32 µM; EC50 [3, 19]: 28 µM; EC50 [4, 20]: 22 µM; EC50 [4, 21]: 9 µM; EC50 [5, 16]: 71 µM; EC50 [5, 17]: 12 µM |
| CC(C)OS(=O)(=O)c1ccc2ccccc2c1 [(32), isopropyl naphthalene-2-sulfonate] | > 100 | – | – | – | – | – | – | – |
| O=C(Cc1ccc2ccccc2c1)NC1C=CS(=O)(=O)C1 (stereo not drawn) [(15), N-(1,1-dioxido-2,3-dihydrothiophen-3-yl)-2-(naphthalen-2-yl)acetamide] | 42 | – | 36 | – | 100 | 26 | 73 | – |
| O=S1(=O)C=CC(OCCc2ccc3ccccc3c2)C1 (stereo not drawn) [(7), 3-(2-(naphthalen-2-yl)ethoxy)-2,3-dihydrothiophene 1,1-dioxide] | 29 | – | 19 | – | – | 10 | 95 | – |

Reference: US12595243B2, “Modulators of extracellular signal-regulated kinase” (GEN1E LIFESCIENCES INC., priority 2023, dated 2026)
